# Assay results taken from ChEMBL document CHEMBL1132165, “Analogues of neuroactive polyamine wasp toxins that lack inner basic sites exhibit enhanced antagonism toward a muscle-type mammalian nicotinic acetylcholine receptor” (J Med Chem, 1999).
# Tests used:
# Conditions in all cases: TE-671
# [1] = target: Acetylcholine receptor subunit alpha (Homo sapiens) (UniProt P02708)
# Description: Proteolytic properties against human muscle type nicotinic Acetylcholine receptor(nAchr) from TE671 cells, expressed as acidity constant (pKa1)
# [2] = target: Acetylcholine receptor subunit alpha (Homo sapiens) (UniProt P02708); remark: listed apart in the source
# Description: Proteolytic properties against human muscle type nicotinic Acetylcholine receptor(nAchr) from TE671 cells, expressed as acidity constant (pKa2)
# [3] = target: Acetylcholine receptor subunit alpha (Homo sapiens) (UniProt P02708); remark: listed apart in the source
# Description: Proteolytic properties against human muscle type nicotinic Acetylcholine receptor(nAchr) from TE671 cells, expressed as acidity constant (pKa3)
# [4] = target: Acetylcholine receptor subunit alpha (Homo sapiens) (UniProt P02708); experiment: […] properties against human muscle type nicotinic Acetylcholine receptor (nAchr) from TE671 cells, expressed as acidity constant (pKa1); type: functional, cell-based
# Acetylcholine receptor subunit alpha (Homo sapiens), sequence (P02708 whole entry): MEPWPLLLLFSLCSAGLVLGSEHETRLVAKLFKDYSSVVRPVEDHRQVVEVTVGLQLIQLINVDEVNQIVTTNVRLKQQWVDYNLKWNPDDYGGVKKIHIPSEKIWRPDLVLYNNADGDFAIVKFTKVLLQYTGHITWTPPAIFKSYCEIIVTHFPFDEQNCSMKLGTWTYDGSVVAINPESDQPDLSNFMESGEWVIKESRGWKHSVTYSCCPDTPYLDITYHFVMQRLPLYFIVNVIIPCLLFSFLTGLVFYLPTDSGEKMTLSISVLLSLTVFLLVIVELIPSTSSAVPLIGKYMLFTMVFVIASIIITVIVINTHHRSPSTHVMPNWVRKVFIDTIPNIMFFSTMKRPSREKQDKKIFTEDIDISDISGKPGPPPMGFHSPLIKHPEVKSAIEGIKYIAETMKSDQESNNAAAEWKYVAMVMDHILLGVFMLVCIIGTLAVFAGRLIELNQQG
SMILES,pKa1 [1],pKa2 [2],pKa3 [3],pKa1 [4]
CCCC(=O)NC(Cc1ccc(O)cc1)C(=O)NCCCCCCCCNCCCN (stereo unspecified),9.32,10.2,11.4,
CCCC(=O)NC(Cc1ccc(O)cc1)C(=O)NCCCOCCCCNCCCN (stereo unspecified),9.23,10.3,11.3,
CCCC(=O)NC(Cc1ccc(O)cc1)C(=O)NCCCOCCCCOCCCN (stereo unspecified),,10.9,,10
CCCC(=O)NC(Cc1ccc(O)cc1)C(=O)NCCCNCCCCCCCCN (stereo unspecified),9.71,10.4,11.3,
CCCC(=O)NC(Cc1ccc(O)cc1)C(=O)NCCCCCCCCCCCCN (stereo unspecified),,11.3,,10.3
CCCC(=O)NC(Cc1ccc(O)cc1)C(=O)NCCCNCCCCOCCCN (stereo unspecified),9.47,10.2,10.9,
